{
  "source": "patent EP0965591A1",
  "about": "“(s)-3-methyl-1-(2-piperidino-phenyl)-1-butylamine, its salts, synthesis and use in the long term therapy of diabetes mellitus” (Boehringer Ingelheim Pharma KG, priority 1991, dated 1993)",
  "key": {"weiblichen Ratten": {"system": "weiblichen Ratten", "test": "Blood-glucose-lowering effect in female rats", "format": "in vivo, Ratte", "conditions": "for blutzuckersenkende Wirkung: female rats, comparison of the two enantiomers", "description": "Die beiden Enantiomeren dieser Verbindung, nämlich (S)(+)-2-Ethoxy-4-[N-[1-(2-piperidino-phenyl)-3-methyl-1-butyl]-aminocarbonylmethyl]benzoesäure (Code-Nr.: AG-EE 623 ZD) und (R) (-)-2-Ethoxy-4-[N-[1-(2-piperidino-phenyl)-3-methyl-1-butyl]aminocarbonylmethyl]benzoesäure (Code-Nr.: AG-EE 624 ZD), wurden auf ihre blutzuckersenkende Wirkung an weiblichen Ratten geprüft."}, "[1]": {"design": "species or system Menschen", "conditions": "in vivo", "method": "Dies wirkt sich z.B. bei Applikation einer Tablette mit 2 mg AG-EE 388 ZW bzw. einer Tablette mit 1 mg AG-EE 623 ZW an 12 bzw. 6 Probanden so aus, daß die Maximal-Konzentrationen 84 ± 25 bzw. 28 ± 18 ng/ml sowie die Konzentrationen nach 4 Stunden 19 ± 8 bzw. 0,7 ± 1,0 ng/ml, nach 5 Stunden 13 ± 6 bzw. 0,3 ± 0,7 ng/ml und nach 6 Stunden 10 ± 6 bzw. 0,3 ± 0,7 ng/ml betragen."}, "Menschen": {"system": "Menschen", "test": "Blood-glucose-lowering effect in human studies", "format": "in vivo", "description": "Auf Grund dieser Ergebnisse an der Ratte erscheint für den Menschen die ausschließliche Verwendung von AG-EE 623 ZW geboten, wodurch die Dosis im Vergleich zur AG-EE 388 ZW-Dosis um 50 % reduziert werden kann. […] Darüber hinaus wurde jedoch bei den Human-Studien gefunden, daß AG-EE 623 ZW überraschende pharmakokinetische Eigenschaften aufweist, die auf Grund der AG-EE 388 ZW-Daten nicht vorhersehbar waren. AG-EE 623 ZW zeigt somit überraschende therapeutische Vorteile gegenüber dem Racemat AG-EE 388 ZW."}, "Ratten": {"system": "Ratten", "test": "Acute toxicity after a single oral dose in rats", "format": "in vivo", "conditions": "single 1000 mg/kg p.o., suspension in 1% Methylcellulose; 5 male and 5 female rats; 14 days observation"}},
  "data": [
    {"smiles": "CCOc1cc(CC(=O)N[C@H](CC(C)C)c2ccccc2N2CCCCC2)ccc1C(=O)O", "note": "[AG-EE 624 ZW, (R) (-)-2-Ethoxy-4-[N-[1-(2-piperidino-phenyl)-3-methyl-1-butyl]aminocarbonylmethyl]benzoesäure, reference compound]", "values": [
      {"measurement": "blutzuckersenkende Wirkung", "setting": "weiblichen Ratten", "result": "das unwirksame Enantiomere"},
      {"measurement": "Plasma-Konzentrationen nach Racemat-Gabe", "setting": "[1]", "result": "in unerwartet höheren Maximal- und Dauer-Spiegeln anwesend"}
    ]},
    {"smiles": "CCOc1cc(CC(=O)N[C@@H](CC(C)C)c2ccccc2N2CCCCC2)ccc1C(=O)O", "note": "[AG-EE 623 ZW, (S)(+)-2-Ethoxy-4-[N-[1-(2-piperidino-phenyl)-3-methyl-1-butyl]-aminocarbonylmethyl]benzoesäure]", "values": [
      {"measurement": "Wirkungsdauer", "setting": "Menschen", "result": "relativ lange Wirkungsdauer"},
      {"measurement": "verstorbene Tiere", "setting": "Ratten", "result": "kein Tier"},
      {"measurement": "blutzuckersenkende Wirkung", "setting": "weiblichen Ratten", "result": "das wirksame Enantiomere"},
      {"measurement": "Dauer der Wirkung", "setting": "weiblichen Ratten; rat, blood-glucose-lowering effect", "result": "> 6", "unit": "Stunden"},
      {"measurement": "Elimination", "setting": "[1]", "result": "wesentlich schneller als das unwirksame Enantiomere, AG-EE 624 ZW, eliminiert"},
      {"measurement": "Plasmaspiegel in Relation zur erzielten Blutzuckersenkung", "setting": "[1]", "result": "wesentlich niedrigere Plasmaspiegel"}
    ]}
  ]
}
